Results from PMC6041819, “Synthesis of novel benzenesulfamide derivatives with inhibitory activity against human cytosolic carbonic anhydrase I and II and Vibrio cholerae α- and β-class enzymes” (Journal of Enzyme Inhibition and Medicinal Chemistry, 2018).
pKi: −log10 of the molar value.

Key:
Assay in all cases: stopped-flow CO2 hydrase assay
Format in all cases: biochemical
VchCAα = biological target: T1, VchCAα (Vibrio cholerae, UniProt Q9KMP6)
T1 construct: gene VC_A0274

hCA I = biological target: T2, hCA I (Homo sapiens, UniProt P00915)
T2 construct: gene CA1; recombinant, obtained in-house; cytosolic isoform
From the text: stopped-flow CO2 hydrase assay on hCA I

VchCAβ = biological target: T3, VchCAβ (Vibrio cholerae, UniProt Q9KUD6)
T3 construct: gene VC_0586

hCA II = biological target: T4, hCA II (Homo sapiens, UniProt P00918)
T4 construct: gene CA2; recombinant, obtained in-house; cytosolic isoform
From the text: stopped-flow CO2 hydrase assay on hCA II

T2 sequence (P00915 2-261): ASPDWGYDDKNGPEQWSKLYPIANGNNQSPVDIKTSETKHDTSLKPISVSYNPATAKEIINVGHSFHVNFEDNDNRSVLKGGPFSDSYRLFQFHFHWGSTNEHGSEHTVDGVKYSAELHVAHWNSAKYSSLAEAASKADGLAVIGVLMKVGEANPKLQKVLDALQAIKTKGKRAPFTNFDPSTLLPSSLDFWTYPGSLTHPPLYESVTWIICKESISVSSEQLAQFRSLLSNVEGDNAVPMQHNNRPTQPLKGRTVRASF
T3 sequence (Q9KUD6 1-222): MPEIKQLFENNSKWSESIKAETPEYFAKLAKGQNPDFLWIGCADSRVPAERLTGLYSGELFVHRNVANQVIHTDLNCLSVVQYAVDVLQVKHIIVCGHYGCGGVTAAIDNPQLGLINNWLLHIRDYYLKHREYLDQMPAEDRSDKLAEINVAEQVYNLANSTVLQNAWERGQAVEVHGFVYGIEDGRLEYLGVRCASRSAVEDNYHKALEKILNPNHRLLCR
T1 sequence (Q9KMP6 21-239 limits assumed): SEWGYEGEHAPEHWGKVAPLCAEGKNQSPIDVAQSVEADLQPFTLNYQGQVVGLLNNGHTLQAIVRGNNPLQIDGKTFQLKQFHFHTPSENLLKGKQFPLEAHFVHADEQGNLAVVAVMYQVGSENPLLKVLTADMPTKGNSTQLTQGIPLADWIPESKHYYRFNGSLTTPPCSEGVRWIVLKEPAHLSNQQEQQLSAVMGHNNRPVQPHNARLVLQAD

| SMILES | pKi (VchCAα) | pKi (hCA I) | pKi (VchCAβ) | pKi (hCA II) |
| --- | --- | --- | --- | --- |
| NS(=O)(=O)Nc1cccc(S(=O)(=O)N2CCN(C(c3ccccc3)c3ccccc3)CC2)c1 [6a, 1-Benzhydryl-4-((3-sulfamoylaminophenyl)sulfonyl)piperazine] | 6.48 | 7.18 | 5.33 | 6.38 |
| NS(=O)(=O)Nc1ccc(S(=O)(=O)N2CCN(C(c3ccccc3)c3ccccc3)CC2)cc1 [6b, 1-Benzhydryl-4-((4-sulfamoylaminophenyl)sulfonyl)piperazine] | 6.63 | 6.26 | 5.73 | 6.44 |
| NS(=O)(=O)Nc1ccccc1S(=O)(=O)NCC(=O)N1CCN(C(c2ccccc2)c2ccccc2)CC1 [6c, N-(2-(4-Benzhydrylpiperazin-1-yl)-2-oxoethyl)-2-(sulfamoylamino)benzenesulfonamide] | 6.03 | 6.08 | < 5.00 | 6.07 |
| NS(=O)(=O)Nc1cccc(S(=O)(=O)NCC(=O)N2CCN(C(c3ccccc3)c3ccccc3)CC2)c1 [6d, N-(2-(4-Benzhydrylpiperazin-1-yl)-2-oxoethyl)-3-(sulfamoylamino)benzenesulfonamide] | 7.02 | 7.24 | 5.42 | 6.40 |
| NS(=O)(=O)Nc1ccccc1S(=O)(=O)N1CCC(C(=O)N2CCN(C(c3ccccc3)c3ccccc3)CC2)CC1 [6e, (4-Benzhydrylpiperazin-1-yl)(1-((2-sulfamoylaminophenyl)sulfonyl)piperidin-4-yl)methanone] | 6.06 | 6.24 | < 5.00 | 5.87 |
| NS(=O)(=O)Nc1cccc(S(=O)(=O)N2CCC(C(=O)N3CCN(C(c4ccccc4)c4ccccc4)CC3)CC2)c1 [6f, (4-Benzhydrylpiperazin-1-yl)(1-((3-sulfamoylaminophenyl)sulfonyl)piperidin-4-yl)methanone] | 6.18 | 7.37 | 5.42 | 6.24 |
| NS(=O)(=O)Nc1ccc(S(=O)(=O)N2CCC(C(=O)N3CCN(C(c4ccccc4)c4ccccc4)CC3)CC2)cc1 [6g, (4-Benzhydrylpiperazin-1-yl)(1-((4-sulfamoylaminophenyl)sulfonyl)piperidin-4-yl)methanone] | 6.85 | 6.22 | 5.60 | 6.64 |
| NS(=O)(=O)Nc1ccccc1S(=O)(=O)N1CCN(C(c2ccc(F)cc2)c2ccc(F)cc2)CC1 [6h, 1-(Bis(4-Fluorophenyl)methyl)-4-((2-sulfamoylaminophenyl)sulfonyl)piperazine] | 5.55 | 6.07 | < 5.00 | 5.93 |
| NS(=O)(=O)Nc1cccc(S(=O)(=O)N2CCN(C(c3ccc(F)cc3)c3ccc(F)cc3)CC2)c1 [6i, 1-(Bis(4-Fluorophenyl)methyl)-4-((3-sulfamoylaminophenyl)sulfonyl)piperazine] | 6.23 | 7.12 | 5.76 | 6.41 |
| NS(=O)(=O)Nc1ccc(S(=O)(=O)N2CCN(C(c3ccc(F)cc3)c3ccc(F)cc3)CC2)cc1 [6j, 1-(Bis(4-Fluorophenyl)methyl)-4-((4-sulfamoylaminophenyl)sulfonyl)piperazine] | 6.56 | 7.19 | 5.36 | 6.45 |
| NS(=O)(=O)Nc1ccccc1S(=O)(=O)NCC(=O)N1CCN(C(c2ccc(F)cc2)c2ccc(F)cc2)CC1 [6k, N-(2-(4-(bis(4-Fluorophenyl)methyl)piperazin-1-yl)-2-oxoethyl)-2-(sulfamoylamino)benzenesulfonamide] | 5.76 | 6.47 | < 5.00 | 5.84 |
| NS(=O)(=O)Nc1cccc(S(=O)(=O)NCC(=O)N2CCN(C(c3ccc(F)cc3)c3ccc(F)cc3)CC2)c1 [6l, N-(2-(4-(bis(4-Fluorophenyl)methyl)piperazin-1-yl)-2-oxoethyl)-3-(sulfamoylamino)benzenesulfonamide] | 7.04 | 7.15 | < 5.00 | 6.66 |
| NS(=O)(=O)Nc1ccc(S(=O)(=O)NCC(=O)N2CCN(C(c3ccc(F)cc3)c3ccc(F)cc3)CC2)cc1 [6m, N-(2-(4-(bis(4-Fluorophenyl)methyl)piperazin-1-yl)-2-oxoethyl)-4-(sulfamoylamino)benzene sulfonamide] | 6.98 | 7.32 | 5.33 | 6.68 |
| NS(=O)(=O)Nc1ccccc1S(=O)(=O)N1CCC(C(=O)N2CCN(C(c3ccc(F)cc3)c3ccc(F)cc3)CC2)CC1 [6n, (4-(bis(4-Fluorophenyl)methyl)piperazin-1-yl)(1-((2-sulfamo-ylaminophenyl)sulfonyl)piperidin-4-yl)methanone] | 5.43 | 6.17 | < 5.00 | 6.23 |
| NS(=O)(=O)Nc1cccc(S(=O)(=O)N2CCC(C(=O)N3CCN(C(c4ccc(F)cc4)c4ccc(F)cc4)CC3)CC2)c1 [6o, (4-(bis(4-Fluorophenyl)methyl)piperazin-1-yl)(1-((3-sulfamoylaminophenyl)sulfonyl)piperidin-4-yl)methanone] | 6.30 | 7.14 | 5.80 | 6.18 |
| NS(=O)(=O)Nc1ccc(S(=O)(=O)N2CCC(C(=O)N3CCN(C(c4ccc(F)cc4)c4ccc(F)cc4)CC3)CC2)cc1 [6p, (4-(bis(4-Fluorophenyl)methyl)piperazin-1-yl)(1-((4-sulfamo-ylaminophenyl)sulfonyl)piperidin-4-yl)methanone] | 6.40 | 7.31 | 5.34 | 6.74 |
